{
  "source": "patent US20200255828A1",
  "about": "“METHODS AND COMPOSITIONS FOR ALTERING FUNCTION AND STRUCTURE OF CHROMATIN LOOPS AND/OR DOMAINS” (THE BROAD INSTITUTE, INC., priority 2017, published 2020)",
  "key": {"[1]": {"tested_on": "HCT-116-CMV-OsTIR1 cells", "test": "PRO-Seq control for the auxin hormone itself", "type": "cell-based, human", "conditions": "no mAID tag on any protein", "description": "To measure changes in transcription resulting from cohesin loss, Applicants performed precision run-on sequencing (PRO-Seq) (Jonkers and Lis, 2015), a variant of global run-on sequencing (GRO-Seq), using a single biotinylated nucleotide (biotin-11-CTP) as previously described (Engreitz et al., 2016). Applicants made one modifications to the protocol: at the end of each biotin enrichment, Applicants eluted biotinylated RNAs from the streptavidin-coated magnetic beads by heating beads in 25 μl of 20 mM Tris-HCl pH 7.5, 10 mM EDTA, 2% N-lauroylsarcosine at 95° C. for 5 minutes, followed by a magnetic-bead nucleic acid purification with 20 μl of MyONE SILANE beads. During the nuclei preparation step, Applicants processed pairs of RAD21-mAC cells with and without auxin treatment in parallel. In addition, Applicants performed PRO-Seq on HCT-116 CMV-OsTIR1 cells, the parental cell line of RAD21-mAC containing the OsTIR1 gene integrated at the AAVS1 locus and no mAID tags integrated on any protein. By performing PRO-Seq on CMV-OsTIR1 cells with and without auxin treatment, Applicants could control for transcriptional effects of the auxin treatment itself on HCT-116 cells, as well as any consequences of tagging the RAD21 protein. […]"}, "[2]": {"tested_on": "histone modifications", "test": "ChIP-Seq for histone modifications before and after auxin", "type": "cell-based, human", "text": "Applicants first examined the effects of cohesin degradation on key epigenomic features associated with genome folding, using ChIP-Seq. Applicants examined the distribution of CTCF (associated with loop anchors) and the histone modifications H3K27me3, H3K36me3, H3K27Ac, H3K4me1, H3K4me3, H3K9me3, H4K16Ac, H4K20me3, H3K79me2, and H2.AZ (associated with compartment intervals). Cohesin loss had little effect on these features (FIG. 1C,D; FIG. 8C-E, see Methods).\nChIP-Seq for H3K27Ac, H3K4me1, H3K4me3, H3K36me3, H3K27me3, H3K9me3, H4K16Ac, H4K20me3, H3K79me2, and H2.AZ was performed using a native ChIP-Seq protocol. Chromatin from untreated HCT-116 RAD21-mAC cells or cells treated for 6 hours with 500 uM IAA was digested with Mnase (Sigma) in digestion buffer (50 mM Tris-HCl, pH7.6, 1 mM CaCl2), 0.2% Triton X-100, butyrate 5 mM) for 5′ at 37° C. and dialyzed against RIPA buffer for 2 hrs at 4° C. Five microgram of respective antibody was incubated with 40 μl of Dynabeads Protein A (or G) for 40 min at room temperature. Antibody-bound beads were added to 500 μl of sonicated or Mnase-digested chromatin, incubated at 4° C. overnight, and washed twice with RIPA buffer, twice with RIPA buffer containing 0.3 M NaCl, twice with LiCl buffer (0.25 M LiCl, 0.5% Igepal-630, 0.5% sodium deoxycholate), once with TE (pH 8.0) plus 0.2% Triton X-100, and once with TE (pH 8.0). ChIP DNA was purified by phenol-chloroform extraction followed by ethanol precipitation. Libraries were prepped for Illumina sequencing and 50 bp single-end reads were sequenced on a HiSeq2000 or 2500 (Illumina). Applicants also performed ChIP-Seq for RAD21 and CTCF following the same protocol as above, except that cells were fixed with 1% formaldehyde for 10 minutes at 37° C. and fixation was quenched by the addition of glycine to a final concentration of 125 mM for 10 minutes. The fixed cells were sonicated using a Branson sonifier at amplitude 35%, 12 cycles of 20 seconds of sonication and 30 seconds of pause. Antibody was added to the sonicated chromatin as above and the samples were further processed as above.\nAll ChIP-Seq data was aligned to hg19 with BWA […] (Li and Durbin, 2010), deduplicated using PicardTools, and analyzed with MACS 2.0 (Liu, 2014). All data was normalized against the corresponding input control using the ‘-c’ option of MACS 2.0. ChIP-Seq peaks were called using the ‘callpeak’ function of MACS 2.0 with default parameters. For H3K4me3 and H3K4me1, Applicants additionally used the ‘broad’ option of MACS 2.0 and merged close by peaks to identify broad peaks. […] Finally, in order to annotate broad-source domains, Applicants utilized RSEG (Song and Smith, 2011) using the following flags: ‘-b 25000’, ‘-i 20’, ‘-mode 2’.\nApplicants calculated average signal over 5 kb bins across the entire genome and correlated signal between ChIP-Seq experiments before and after auxin treatment for each of CTCF, H3K27me3, H3K9me3, H3K4me1, H3K4me3 and H3K27Ac.\nAdditionally, Applicants examined overlaps of our ChIP-Seq peak annotations before and after auxin treatment for H3K4me3, H3K4me1 and H3K27Ac. […]"}, "[3]": {"tested_on": "RAD21-mAC cells", "test": "Gene expression changes between untagged HCT-116 cells and auxin-treated RAD21-mAC cells", "type": "cell-based", "conditions": "auxin-treated RAD21-mAC cells compared with untagged HCT-116 cells", "text": "To our surprise, Applicants only identified 68 cell type specific loops (compared to […] each per pair of cell types in Rao et al 2014). In order to increase statistical power, Applicants identified 518 loops that had been called in one of our cell types in Rao et al 2014 (HMEC, IMR90, K562, HUVEC, HeLa, NHEK) but not in GM12878, or vice versa and had been associated with 10-fold upregulation of a gene whose promoter lay at the loop anchor. Applicants sought to then identify cases where these loop-gene pairs were present in HCT-116 to then examine the results of loop loss. However, only 15 of the 518 loops were conserved in HCT-116. […] Alternatively, it is possible that the tagging of cohesin and resulting potential loss of stability results in preferential loss of cell type specific loops. […] In fact, it may be the case that some other regulatory event catalyzes both loop formation and gene activation, or that gene activation itself enables loop formation."}},
  "data": [
    {"smiles": "O=C(O)Cc1c[nH]c2ccccc12", "note": "[auxin, indole-3-acetic acid]", "values": [
      {"measurement": "number of genes detected as significantly different before vs after auxin treatment", "setting": "[1]", "result": 105},
      {"measurement": "number of genes significantly different with at least a 1.3-fold change", "setting": "[1]", "result": 56},
      {"measurement": "overlap of H3K4me1 ChIP-Seq peaks called before and after auxin treatment", "setting": "[2]", "result": 85, "unit": "%"},
      {"measurement": "overlap of H3K4me3 ChIP-Seq peaks called before and after auxin treatment", "setting": "[2]", "result": 90, "unit": "%"},
      {"measurement": "overlap of H3K27Ac ChIP-Seq peaks called before and after auxin treatment", "setting": "[2]", "result": 81, "unit": "%"},
      {"measurement": "Spearman's r of ChIP-Seq signal before vs after auxin treatment, H2.AZ", "setting": "[2]; 5 kb bins genome-wide", "result": 0.96},
      {"measurement": "Spearman's r of ChIP-Seq signal before vs after auxin treatment, H3K4me1", "setting": "[2]; 5 kb bins genome-wide", "result": 0.94},
      {"measurement": "Spearman's r of ChIP-Seq signal before vs after auxin treatment, H3K4me3", "setting": "[2]; 5 kb bins genome-wide", "result": 0.70},
      {"measurement": "Spearman's r of ChIP-Seq signal before vs after auxin treatment, H3K9me3", "setting": "[2]; 5 kb bins genome-wide", "result": 0.95},
      {"measurement": "Spearman's r of ChIP-Seq signal before vs after auxin treatment, H3K27Ac", "setting": "[2]; 5 kb bins genome-wide", "result": 0.90},
      {"measurement": "Spearman's r of ChIP-Seq signal before vs after auxin treatment, H3K27me3", "setting": "[2]; 5 kb bins genome-wide", "result": 0.95},
      {"measurement": "Spearman's r of ChIP-Seq signal before vs after auxin treatment, H3K36me3", "setting": "[2]; 5 kb bins genome-wide", "result": 0.94},
      {"measurement": "Spearman's r of ChIP-Seq signal before vs after auxin treatment, H3K79me2", "setting": "[2]; 5 kb bins genome-wide", "result": 0.96},
      {"measurement": "Spearman's r of ChIP-Seq signal before vs after auxin treatment, H4K16Ac", "setting": "[2]; 5 kb bins genome-wide", "result": 0.95},
      {"measurement": "Spearman's r of ChIP-Seq signal before vs after auxin treatment, H4K20me3", "setting": "[2]; 5 kb bins genome-wide", "result": 0.89},
      {"measurement": "genes with a greater than 5-fold change in expression", "setting": "[3]", "result": 3}
    ]}
  ]
}
